Source: the Kinase Knowledgebase extract (Sharma et al. 2016)

Biological target: EGFR (human) (UniProt P00533)
Details: A431

EGFR (human), sequence (P00533 whole entry, looked up): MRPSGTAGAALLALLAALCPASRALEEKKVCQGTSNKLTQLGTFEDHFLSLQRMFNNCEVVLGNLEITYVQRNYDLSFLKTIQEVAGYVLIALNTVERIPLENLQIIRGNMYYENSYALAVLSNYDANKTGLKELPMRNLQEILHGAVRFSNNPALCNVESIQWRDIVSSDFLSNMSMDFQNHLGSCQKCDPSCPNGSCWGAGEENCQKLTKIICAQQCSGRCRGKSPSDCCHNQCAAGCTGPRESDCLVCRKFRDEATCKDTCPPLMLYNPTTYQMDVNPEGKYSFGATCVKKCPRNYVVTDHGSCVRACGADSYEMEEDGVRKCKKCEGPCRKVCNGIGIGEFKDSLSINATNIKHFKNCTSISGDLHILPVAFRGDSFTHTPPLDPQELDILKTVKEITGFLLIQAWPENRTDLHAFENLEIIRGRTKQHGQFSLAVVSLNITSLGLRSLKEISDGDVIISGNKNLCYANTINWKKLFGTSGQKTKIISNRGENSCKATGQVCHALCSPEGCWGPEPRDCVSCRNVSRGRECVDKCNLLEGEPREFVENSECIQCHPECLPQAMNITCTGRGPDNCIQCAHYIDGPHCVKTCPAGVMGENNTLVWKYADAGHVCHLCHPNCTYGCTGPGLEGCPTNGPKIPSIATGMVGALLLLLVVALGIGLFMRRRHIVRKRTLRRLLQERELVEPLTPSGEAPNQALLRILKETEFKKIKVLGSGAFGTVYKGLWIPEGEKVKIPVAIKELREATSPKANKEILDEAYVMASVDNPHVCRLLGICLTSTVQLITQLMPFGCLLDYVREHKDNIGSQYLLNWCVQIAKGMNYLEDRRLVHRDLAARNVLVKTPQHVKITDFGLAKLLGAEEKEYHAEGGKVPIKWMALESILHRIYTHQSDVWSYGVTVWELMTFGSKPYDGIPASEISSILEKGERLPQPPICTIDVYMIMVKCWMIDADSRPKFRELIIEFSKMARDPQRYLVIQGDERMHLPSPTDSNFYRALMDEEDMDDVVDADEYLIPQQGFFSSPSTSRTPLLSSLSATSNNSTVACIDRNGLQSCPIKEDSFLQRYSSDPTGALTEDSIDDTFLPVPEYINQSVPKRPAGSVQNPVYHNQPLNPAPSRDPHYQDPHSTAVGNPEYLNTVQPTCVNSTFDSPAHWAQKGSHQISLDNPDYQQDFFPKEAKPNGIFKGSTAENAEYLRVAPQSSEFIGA

| SMILES | IC50 [nM] |
| --- | --- |
| CCOc1cc(/C=C(\C#N)C(N)=O)cc(CSc2ccc(C)cc2)c1O | 2200 |
| N#C/C(=C\c1cc(CSc2ccccc2)c(O)c(OCc2ccccc2)c1)C(N)=O | 750 |
| N#C/C(=C\c1cc(Cc2ccccc2)c(O)c(Cc2ccccc2)c1)C(N)=O | 600 |
| CCOc1cc(/C=C(\C#N)C(N)=O)cc(CSc2cccc(OC)c2)c1O | 4000 |
| COc1cc(/C=C(\C#N)C(N)=O)cc(CSc2ccccc2)c1O | 530 |
| CC(C)c1cc(/C=C(\C#N)C(N)=O)cc(C(C)C)c1O | 1100 |
| CCOc1cc(/C=C(\C#N)C(N)=O)cc(CSc2ccccc2)c1O | 370 |
| N#C/C(=C\c1cc(-c2ccccc2)c(O)c(-c2ccccc2)c1)C(N)=O | 370 |
| CCOc1cc(/C=C(\C#N)C(N)=O)cc(CSc2c(F)c(F)c(F)c(F)c2F)c1O | 3000 |
| CC(C)(C)c1cc(/C=C(\C#N)C(N)=O)cc(C(C)(C)C)c1O | 46000 |
| CC(C)c1cc(CC(C#N)C(N)=O)cc(C(C)C)c1O (stereo unspecified) | 9800 |
| CCOc1cc(/C=C(\C#N)C(N)=O)cc(CSc2ccc(O)cc2)c1O | 2800 |

Same assay, conditions: A431; concentration not given here

| SMILES | inhibition [%] |
| --- | --- |
| CCOc1cc(/C=C(\C#N)C(N)=O)cc(CSc2ccc(C)cc2)c1O | 47 |
| CCOc1cc(/C=C(\C#N)C(N)=O)cc(CSc2ccccc2)c1OC(C)=O | 24 |
| CCOc1cc(/C=C(\C#N)C(N)=O)cc(CSc2cccc(OC)c2)c1O | 17 |
| CCOc1cc(/C=C(\C#N)C(N)=O)cc(COc2ccccc2)c1O | 18 |
| CCOc1cc(/C=C(\C#N)C(N)=O)cc(CSc2ccc(Br)cc2)c1O | 0 |
| CCOc1cc(/C=C(\C#N)C(N)=O)cc(CSc2ccc([N+](=O)[O-])cc2)c1O | 0 |
| CCOc1cc(/C=C(\C#N)C(N)=O)cc(CSc2cccc(Cl)c2)c1O | 0 |
| CCOc1cc(/C=C(\C#N)C(N)=O)cc(CSc2ccccc2OC)c1O | 0 |
| CCOc1cc(/C=C(\C#N)C(N)=O)cc(CSc2ccccc2)c1OC(=O)c1ccccc1 | 20 |
| CCOc1cc(/C=C(\C#N)C(N)=O)cc(CSc2ccc(Cl)c(Cl)c2)c1O | 0 |
| CCOc1cc(/C=C(\C#N)C(N)=O)cc(CSc2c(F)c(F)c(F)c(F)c2F)c1O | 41 |
| CCOc1cc(/C=C(\C#N)C(N)=O)cc(CSc2ccccc2)c1OC | 18 |
| CCOc1cc(/C=C(\C#N)C(N)=O)cc(CSc2ccc(O)cc2)c1O | 30 |
| CCOc1cc(/C=C(\C#N)C(N)=O)cc(CSc2ccc(C(C)(C)C)cc2)c1O | 0 |
